Data set [1] has as its system erythroid burst-forming units (BFU-E). The data set is described as follows: toxicity to erythroid burst-forming units. In kind it is cell-based. The settings on record: compared with AZT.
Data set [2] concerns granulocyte macrophage colony-forming units (CFU-GM). As to the kind of experiment: toxicity to granulocyte macrophage colony-forming units. In kind it is cell-based. The settings on record: compared with AZT.
For data set [3], the system named is antiviral activity of AZT. As to the kind of experiment: effect of AMT on antiviral activity of AZT.
The test system of data set [4] is bone marrow cells. The settings on record: AZT treatment; cited from earlier work.
For data set [5] the following is noted: recently discovered; Cretton et al 1991; cited from earlier work.
Data set [6] is described as follows: pharmacokinetics and metabolism of AZT: hepatic catabolites. In kind it is in vivo, human. The settings on record: in addition to GAZT.
Data set [7] has as its system Human Immunodeficiency Virus (HIV). The settings on record: HIV infected patients; cited from earlier work.

As to `Cc1cn([C@H]2C[C@H](N)[C@@H](CO)O2)c(=O)[nH]c1=O` [AMT, 3'-amino-3'-deoxythymidine], in data set [1], the “toxicity to BFU-E relative to AZT” value was “many more times toxic”. Further, in data set [2], the “toxicity to CFU-GM relative to AZT” value is “many more times toxic”. Further, the “effect on the antiviral activity of AZT” value in data set [3] (concentrations as low as a 1:1 molar ratio with AZT) is listed as “adverse effect on the antiviral activity of AZT”. In addition, in data set [3] (stated as believed, no concentration given), the “interference with the antiviral activity of AZT” value was “believed to interfere with the antiviral activity of AZT”.

Consider `Cc1cn([C@H]2C[C@H](N=[N+]=[N-])[C@@H](CO)O2)c(=O)[nH]c1=O` [AZT, 3'-azido-3'-deoxythymidine], for which, in data set [4], the “toxicity to bone marrow cells” value was “toxicity to bone marrow cells, manifested by anemia and neutropenia”. Further, in data set [5], the “hepatic catabolite of AZT” value was 3'-amino-3'-deoxythymidine (AMT). The “hepatic catabolites of AZT” value in data set [6] was 3'-amino-3'-deoxythymidine (AMT) and its 5'-O-glucuronide(GAMT). For the same compound, the clinical benefits entry in data set [7] is “increased survival, decreased number of opportunistic infections, and partial improvement in neurologic manifestations”.

These data come from patent publication US5464748A, “Method of detecting and monitoring levels of 3'-amino-3'-deoxythymidine in body fluids and antibodies for same” (The UAB Research Foundation, priority 1993, dated 1995).
